Reference: US20020090380A1, “Novel formulation comprising thymol useful in the treatment of drug resistant bacterial infections” (priority 2000, published 2002)
Read-outs that look alike come from different tables or passages of the source.

Columns and labels:
Experiment in all cases: microbe, parasite or virus in culture
Format in all cases: cell-based
[1] = tested on: E. coli strain CA8000 (wild type); conditions: Escherichia coli
[2] = tested on: E. coli strain DH5α (gyr mutation); conditions: Escherichia coli
[3] = tested on: E. coli strain ET8000 (gyr mutation); conditions: Escherichia coli
[4] = tested on: nalidixic acid resistant mutants of Escherichia coli; conditions: for inhibition zones / zone of inhibition at 50 µg/disc: 50 μg/disc; for zone of inhibition at 100 µg/disc / zone of inhibition at 250 µg/disc / zone of inhibition at 50 µg/disc: Escherichia coli; for zone of inhibition at 100 µg/disc: 100 μg/disc; for zone of inhibition at 250 µg/disc: 250 μg/disc
[5] = read-out: inhibition zones, CAN 102
[6] = read-out: inhibition zones, CAN 104
[7] = read-out: inhibition zones, CAN 105
[8] = read-out: inhibition zones, CAN 106
[9] = read-out: inhibition zones, CAN 107
[10] = read-out: inhibition zones, CAN 108
[11] = read-out: inhibition zones, CAN 109
[12] = read-out: inhibition zones, CAN 110
[13] = read-out: inhibition zones, CAN 111
[14] = read-out: inhibition zones, CAN 112
[15] = read-out: inhibition zones, CAN 113
[16] = read-out: inhibition zones, CAN 114
[17] = read-out: inhibition zones, CAN 115
[18] = read-out: inhibition zones, CAN 116
[19] = read-out: inhibition zones, CAN 117
[20] = read-out: inhibition zones, CAN 118
[21] = read-out: inhibition zones, CAN 119
[22] = read-out: inhibition zones, CAN 120
[23] = read-out: inhibition zones, CAN 121

SMILES: Cc1ccc(C(C)C)c(O)c1 [Thymol]
- zone of inhibition at 10000 µg/mL [1]: 1 mm
- zone of inhibition at 20000 µg/mL [1]: 2 mm
- zone of inhibition at 50000 µg/mL [1]: 5 mm
- zone of inhibition at 250 µg/disc ([1]; read-out: inhibition zones): 4 mm
- zone of inhibition at 50000 µg/mL [2]: 5.5 mm
- zone of inhibition at 20000 µg/mL [3]: 3 mm
- zone of inhibition at 50000 µg/mL [3]: 6 mm
- inhibition zones ([4]; CAN 101): Tr.
- inhibition zones ([4]; CAN 102): Tr.
- inhibition zones ([4]; CAN 103): Tr.
- inhibition zones ([4]; CAN 104): Tr.
- inhibition zones ([4]; CAN 105): Tr.
- inhibition zones ([4]; CAN 108): Tr.
- inhibition zones ([4]; CAN 113): Tr.
- inhibition zones ([4]; CAN 122): Tr.
- zone of inhibition at 100 µg/disc ([4]; read-out: inhibition zones, CAN 101): 1.5 mm
- zone of inhibition at 100 µg/disc [4, 5]: 2 mm
- zone of inhibition at 250 µg/disc [4, 5]: 7 mm
- zone of inhibition at 100 µg/disc ([4]; read-out: inhibition zones, CAN 103): 2 mm
- zone of inhibition at 100 µg/disc [4, 6]: 2 mm
- zone of inhibition at 250 µg/disc [4, 6]: 6 mm
- zone of inhibition at 100 µg/disc [4, 7]: 2 mm
- zone of inhibition at 250 µg/disc [4, 7]: 5 mm
- zone of inhibition at 50 µg/disc [4, 8]: 1 mm
- zone of inhibition at 100 µg/disc [4, 8]: 2 mm
- zone of inhibition at 50 µg/disc [4, 9]: 1 mm
- zone of inhibition at 100 µg/disc [4, 9]: 3 mm
- zone of inhibition at 250 µg/disc [4, 9]: 5 mm
- zone of inhibition at 100 µg/disc [4, 10]: 2 mm
- zone of inhibition at 250 µg/disc [4, 10]: 5 mm
- zone of inhibition at 50 µg/disc [4, 11]: 1 mm
- zone of inhibition at 100 µg/disc [4, 11]: 3 mm
- zone of inhibition at 250 µg/disc [4, 11]: 6 mm
- zone of inhibition at 50 µg/disc [4, 12]: 1 mm
- zone of inhibition at 100 µg/disc [4, 12]: 3 mm
- zone of inhibition at 250 µg/disc [4, 12]: 6 mm
- zone of inhibition at 50 µg/disc [4, 13]: 1 mm
- zone of inhibition at 100 µg/disc [4, 13]: 3 mm
- zone of inhibition at 250 µg/disc [4, 13]: 5 mm
- zone of inhibition at 50 µg/disc [4, 14]: 1 mm
- zone of inhibition at 100 µg/disc [4, 14]: 3 mm
- zone of inhibition at 250 µg/disc [4, 14]: 5 mm
- zone of inhibition at 100 µg/disc [4, 15]: 2 mm
- zone of inhibition at 250 µg/disc [4, 15]: 5 mm
- zone of inhibition at 50 µg/disc [4, 16]: 1 mm
- zone of inhibition at 100 µg/disc [4, 16]: 3 mm
- zone of inhibition at 250 µg/disc [4, 16]: 6 mm
- zone of inhibition at 50 µg/disc [4, 17]: 1 mm
- zone of inhibition at 100 µg/disc [4, 17]: 3 mm
- zone of inhibition at 250 µg/disc [4, 17]: 5 mm
- zone of inhibition at 50 µg/disc [4, 18]: 1 mm
- zone of inhibition at 100 µg/disc [4, 18]: 3 mm
- zone of inhibition at 250 µg/disc [4, 18]: 5 mm
- zone of inhibition at 50 µg/disc [4, 19]: 1 mm
- zone of inhibition at 100 µg/disc [4, 19]: 3 mm
- zone of inhibition at 250 µg/disc [4, 19]: 5 mm
- zone of inhibition at 50 µg/disc [4, 20]: 1 mm
- zone of inhibition at 100 µg/disc [4, 20]: 3 mm
- zone of inhibition at 250 µg/disc [4, 20]: 5 mm
- zone of inhibition at 50 µg/disc [4, 21]: 1 mm
- zone of inhibition at 100 µg/disc [4, 21]: 3 mm
- zone of inhibition at 250 µg/disc [4, 21]: 6 mm
- zone of inhibition at 50 µg/disc [4, 22]: 1 mm
- zone of inhibition at 100 µg/disc [4, 22]: 3 mm
- zone of inhibition at 250 µg/disc [4, 22]: 6 mm
- zone of inhibition at 50 µg/disc [4, 23]: 1 mm
- zone of inhibition at 100 µg/disc [4, 23]: 3 mm
